Measured values reported in the RepoRT retention time repository.

Experiment: HILIC, Waters ACQUITY UPLC BEH Amide, 100 × 2.1 mm, 1.7 µm; A: water + 0.125% formic acid + 10 mM ammonium formate; B: 5% water + 95% acetonitrile + 0.125% formic acid + 10 mM ammonium formate; gradient (min/%B) 0/100 2/100 7.7/70 9.5/40 10.25/30 12.75/100 17/100
Details: stereoisomer not certain

Compound | LC retention time [min]
Cc1nc2ccc(CN(C)c3ccc(C(=O)NC(CCC(=O)O)C(=O)O)s3)cc2c(=O)[nH]1 (configuration not stated) [Raltitrexed] | 7.35
NC(N)=Nc1nc(CSCCC(N)=NS(N)(=O)=O)cs1 [Famotidine] | 5.59
NC(Cc1c[nH]c2ccccc12)C(=O)O (configuration not stated) [Tryptophan] | 6.92
CNC(C)C(=O)O (configuration not stated) [N-Methylalanine] | 7.67
Cc1ncc([N+](=O)[O-])n1CC(C)O (configuration not stated) [Secnidazole] | 1.12
CCCCCCCCCCCCCCCCCC(=O)OC(CC(=O)[O-])C[N+](C)(C)C [Stearoyl-L-carnitine] | 2.96
CC12CCC(=O)C=C1CCC1C2C(O)CC2(C)C1CCC2(O)C(=O)CO (configuration not stated) [Hydrocortisone] | 2.56
CC(O)CC(=O)OC(CC(=O)[O-])C[N+](C)(C)C (configuration not stated) [3-Hydroxybutyrylcarnitine] | 7.62
O=P(O)(O)OCC(O)C(O)C(O)C(O)CO (configuration not stated) [Sorbitol-6-phosphate] | 9.75
O=C(O)Cc1cccc(O)c1 [3-Hydroxyphenylacetic acid] | 1.45
COc1ccc(-c2oc3c(CC=C(C)C)c(OC4OC(CO)C(O)C(O)C4O)cc(O)c3c(=O)c2OC2OC(C)C(O)C(O)C2O)cc1 (configuration not stated) [Icarin] | 4.74
CC(=O)OCC=C(C)CCC=C(C)C [Nerylacetate] | 0.99
CCN(C(C)=O)c1cccc(-c2ccnc3c(C#N)cnn23)c1 [Zaleplon] | 1.02
CN(C)CCN(Cc1ccccc1)c1ccccn1 [Tripelennamine] | 1.98
O=c1cccc[nH]1 [2-Pyridone] | 2.05
CN1C2CCCC1CC(NC(=O)c1nn(C)c3ccccc13)C2 (configuration not stated) [Granisetron] | 4.12
Nc1ccc(O)c(C(=O)O)c1 | 3.89
NC(CCC(=O)O)C(=O)NC(Cc1ccccc1)C(=O)O (configuration not stated) [Glu-Phe] | 8.2
C=Cc1ccc(O)c(OC)c1 [2-Methoxy-4-vinylphenol] | 8.71

Compound | LC retention time [min]
Nc1nc2c(ncn2C2CC(O)C(COP(=O)(O)O)O2)c(=O)[nH]1 (configuration not stated) [2'-Deoxyguanosine 5'-monophosphate] | 9.25
Clc1ccc2c(c1)CCc1cccnc1C2=C1CCNCC1 [Desloratadine] | 4.9
C#CC1(O)CCC2C3C(C)CC4=C(CCC(=O)C4)C3CCC21C (configuration not stated) [Tibolone] | 1
CCCCc1nc(Cl)c(CO)n1Cc1ccc(-c2ccccc2-c2nn[nH]n2)cc1 [Losartan] | 1.27
O=C(O)C1CSCN1 (configuration not stated) [Thiazolidine-4-carboxylic acid] | 6.92
O=C(O)c1ccccc1C(=O)O [Phthalic acid] | 1.15
NC(=O)NC(CCC(=O)O)C(=O)O (configuration not stated) [Ureidoglutaric acid] | 7.8
CCCCCCc1ccc(O)cc1O [4-Hexylresorcinol] | 1.63
O=C(O)CCP(=O)(O)O [3-Phosphonopropionic acid] | 8.59
CC(C)=CCN1CCC2(C)c3cc(O)ccc3CC1C2C (configuration not stated) [Pentazocine] | 2.65
Clc1ccccc1CN1CCc2sccc2C1 [Ticlopidine] | 1.12
O=C(O)CCCCC1SCC2NC(=O)NC21 (configuration not stated) [Biotin] | 2.85
NC1C(O)OC(COP(=O)(O)O)C(O)C1O (configuration not stated) [Glucosamine-6-phosphate] | 10.1
Cc1ncc(CO)c(C(=O)O)c1O [4-Pyridoxic acid] | 2.66
CCOC(=O)C1=C(C)NC(C)=C(C(=O)OC)C1c1cccc([N+](=O)[O-])c1 (configuration not stated) [Nitrendipine] | 0.95
CCCC=CC=O [2-Hexenal] | 1.39
CC(C)NCC(O)COc1ccc(CCOCC2CC2)cc1 (configuration not stated) [Betaxolol] | 3.05
NCCCC(N)C(=O)O (configuration not stated) [Ornithine] | 9.6
